What was measured:
[1] = molecular target: Histamine H3 receptor (Cavia porcellus, UniProt Q9JI35)
[2] = molecular target: Muscarinic acetylcholine receptor M2 (Homo sapiens, UniProt P08172)
[3] = molecular target: D(1B) dopamine receptor (Homo sapiens, UniProt P21918)
[4] = molecular target: 5-hydroxytryptamine receptor 2A (Homo sapiens, UniProt P28223)
[5] = molecular target: 5-hydroxytryptamine receptor 6 (Homo sapiens, UniProt P50406)
[6] = molecular target: Mu-type opioid receptor (Homo sapiens, UniProt P35372)
[7] = molecular target: Alpha-2C adrenergic receptor (Homo sapiens, UniProt P18825)
[8] = molecular target: Alpha-2A adrenergic receptor (Homo sapiens, UniProt P08913)
[9] = molecular target: Histamine H2 receptor (Homo sapiens, UniProt P25021)
[10] = molecular target: D(3) dopamine receptor (Rattus norvegicus, UniProt P19020)
[11] = molecular target: 5-hydroxytryptamine receptor 2C (Rattus norvegicus, UniProt P08909)
[12] = molecular target: Kappa-type opioid receptor (Homo sapiens, UniProt P41145)
[13] = molecular target: Alpha-2B adrenergic receptor (Homo sapiens, UniProt P18089)
[14] = molecular target: 5-hydroxytryptamine receptor 1E (Homo sapiens, UniProt P28566)
[15] = molecular target: Histamine H1 receptor (Homo sapiens, UniProt P35367)
[16] = molecular target: Gamma-aminobutyric acid receptor subunit alpha-1 (Rattus norvegicus, UniProt P62813)
[17] = molecular target: Beta-2 adrenergic receptor (Rattus norvegicus, UniProt P10608)
[18] = molecular target: D(2) dopamine receptor (Homo sapiens, UniProt P14416)
[19] = molecular target: Delta-type opioid receptor (Homo sapiens, UniProt P41143)
[20] = molecular target: Beta-1 adrenergic receptor (Rattus norvegicus, UniProt P18090)
[21] = molecular target: Histamine H4 receptor (Homo sapiens, UniProt Q9H3N8)
[22] = molecular target: D(1A) dopamine receptor (Homo sapiens, UniProt P21728)
[23] = molecular target: Muscarinic acetylcholine receptor M5 (Homo sapiens, UniProt P08912)
[24] = molecular target: 5-hydroxytryptamine receptor 5A (Homo sapiens, UniProt P47898)
Chain of 5-hydroxytryptamine receptor 5A (P47898 whole entry): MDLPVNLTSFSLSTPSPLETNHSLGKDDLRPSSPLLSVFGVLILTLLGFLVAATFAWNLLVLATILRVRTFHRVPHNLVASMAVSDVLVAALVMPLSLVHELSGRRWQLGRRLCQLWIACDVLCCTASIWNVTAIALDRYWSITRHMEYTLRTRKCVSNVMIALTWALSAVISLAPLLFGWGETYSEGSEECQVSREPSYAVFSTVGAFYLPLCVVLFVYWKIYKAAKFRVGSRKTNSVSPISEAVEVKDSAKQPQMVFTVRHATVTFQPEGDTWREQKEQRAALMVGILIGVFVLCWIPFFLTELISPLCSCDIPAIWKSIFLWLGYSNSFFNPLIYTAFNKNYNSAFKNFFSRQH

Chain of Kappa-type opioid receptor (P41145 whole entry): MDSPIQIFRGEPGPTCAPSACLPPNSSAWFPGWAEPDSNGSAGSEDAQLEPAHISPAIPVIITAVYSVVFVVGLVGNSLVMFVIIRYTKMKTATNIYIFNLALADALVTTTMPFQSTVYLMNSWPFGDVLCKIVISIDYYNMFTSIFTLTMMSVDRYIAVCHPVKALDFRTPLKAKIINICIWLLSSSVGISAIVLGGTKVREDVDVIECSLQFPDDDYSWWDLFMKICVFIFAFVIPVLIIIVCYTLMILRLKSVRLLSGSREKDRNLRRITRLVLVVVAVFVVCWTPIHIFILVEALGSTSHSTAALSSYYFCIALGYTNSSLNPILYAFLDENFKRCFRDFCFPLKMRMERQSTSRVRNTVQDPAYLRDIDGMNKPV
Chain of Alpha-2B adrenergic receptor (P18089 whole entry): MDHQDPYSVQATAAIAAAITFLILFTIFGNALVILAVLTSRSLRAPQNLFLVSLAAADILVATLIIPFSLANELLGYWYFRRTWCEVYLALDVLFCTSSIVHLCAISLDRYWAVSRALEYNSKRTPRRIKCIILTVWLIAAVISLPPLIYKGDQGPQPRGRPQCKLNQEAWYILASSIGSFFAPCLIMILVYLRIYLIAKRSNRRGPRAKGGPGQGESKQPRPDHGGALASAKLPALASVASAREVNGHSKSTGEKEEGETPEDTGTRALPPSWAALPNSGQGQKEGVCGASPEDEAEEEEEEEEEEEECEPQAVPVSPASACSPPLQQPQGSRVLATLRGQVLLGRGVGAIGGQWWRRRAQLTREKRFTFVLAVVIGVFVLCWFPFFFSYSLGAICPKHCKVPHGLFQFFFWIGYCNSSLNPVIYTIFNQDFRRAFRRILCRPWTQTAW
Chain of Beta-1 adrenergic receptor (P18090 whole entry): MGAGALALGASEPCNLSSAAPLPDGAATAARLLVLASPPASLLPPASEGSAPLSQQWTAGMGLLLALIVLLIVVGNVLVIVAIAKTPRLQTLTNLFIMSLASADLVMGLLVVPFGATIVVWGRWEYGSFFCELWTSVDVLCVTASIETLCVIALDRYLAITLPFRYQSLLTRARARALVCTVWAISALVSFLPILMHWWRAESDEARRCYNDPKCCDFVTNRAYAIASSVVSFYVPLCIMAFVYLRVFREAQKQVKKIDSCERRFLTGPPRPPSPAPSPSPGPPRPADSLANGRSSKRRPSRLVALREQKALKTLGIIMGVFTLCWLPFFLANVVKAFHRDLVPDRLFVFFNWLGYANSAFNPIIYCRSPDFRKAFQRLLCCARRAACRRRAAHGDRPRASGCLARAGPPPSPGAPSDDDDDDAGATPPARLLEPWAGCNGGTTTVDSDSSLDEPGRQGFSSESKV
Chain of Beta-2 adrenergic receptor (P10608 whole entry): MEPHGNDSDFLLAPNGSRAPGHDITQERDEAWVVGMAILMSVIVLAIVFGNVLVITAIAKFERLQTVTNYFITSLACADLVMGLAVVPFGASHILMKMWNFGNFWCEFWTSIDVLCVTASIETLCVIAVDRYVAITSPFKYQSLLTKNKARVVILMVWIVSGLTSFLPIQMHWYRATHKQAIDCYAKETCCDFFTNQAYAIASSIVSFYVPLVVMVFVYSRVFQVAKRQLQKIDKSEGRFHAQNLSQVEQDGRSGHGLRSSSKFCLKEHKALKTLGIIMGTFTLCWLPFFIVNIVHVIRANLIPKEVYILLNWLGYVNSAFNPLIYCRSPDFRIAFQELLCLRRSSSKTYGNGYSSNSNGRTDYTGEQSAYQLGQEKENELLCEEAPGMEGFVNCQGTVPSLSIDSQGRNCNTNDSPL
Chain of 5-hydroxytryptamine receptor 2A (P28223 whole entry): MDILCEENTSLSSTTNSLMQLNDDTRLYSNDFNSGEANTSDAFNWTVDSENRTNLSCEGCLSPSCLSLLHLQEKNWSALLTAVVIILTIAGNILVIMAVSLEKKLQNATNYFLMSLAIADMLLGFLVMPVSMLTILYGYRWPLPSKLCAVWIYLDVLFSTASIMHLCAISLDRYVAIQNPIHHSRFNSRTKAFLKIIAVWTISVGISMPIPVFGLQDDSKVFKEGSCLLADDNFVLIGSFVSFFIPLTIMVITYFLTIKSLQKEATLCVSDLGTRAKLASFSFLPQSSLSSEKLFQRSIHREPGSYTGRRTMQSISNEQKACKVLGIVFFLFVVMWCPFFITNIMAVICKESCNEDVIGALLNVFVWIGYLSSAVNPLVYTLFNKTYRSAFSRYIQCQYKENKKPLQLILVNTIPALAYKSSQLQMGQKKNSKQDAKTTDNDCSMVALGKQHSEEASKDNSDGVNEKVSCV
Chain of Muscarinic acetylcholine receptor M2 (P08172 whole entry): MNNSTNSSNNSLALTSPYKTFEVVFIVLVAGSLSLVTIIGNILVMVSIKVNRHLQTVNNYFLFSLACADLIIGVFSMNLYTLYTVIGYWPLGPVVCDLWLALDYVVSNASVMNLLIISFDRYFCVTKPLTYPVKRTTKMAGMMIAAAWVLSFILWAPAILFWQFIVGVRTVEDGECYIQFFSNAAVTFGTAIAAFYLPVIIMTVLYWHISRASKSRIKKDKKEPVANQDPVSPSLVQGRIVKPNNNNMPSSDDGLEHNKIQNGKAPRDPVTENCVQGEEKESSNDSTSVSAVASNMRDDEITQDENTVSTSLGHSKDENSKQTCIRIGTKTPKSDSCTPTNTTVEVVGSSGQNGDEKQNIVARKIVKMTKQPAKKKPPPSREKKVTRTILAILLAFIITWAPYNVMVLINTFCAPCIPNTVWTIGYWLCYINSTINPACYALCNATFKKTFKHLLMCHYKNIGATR
Chain of Histamine H1 receptor (P35367 whole entry): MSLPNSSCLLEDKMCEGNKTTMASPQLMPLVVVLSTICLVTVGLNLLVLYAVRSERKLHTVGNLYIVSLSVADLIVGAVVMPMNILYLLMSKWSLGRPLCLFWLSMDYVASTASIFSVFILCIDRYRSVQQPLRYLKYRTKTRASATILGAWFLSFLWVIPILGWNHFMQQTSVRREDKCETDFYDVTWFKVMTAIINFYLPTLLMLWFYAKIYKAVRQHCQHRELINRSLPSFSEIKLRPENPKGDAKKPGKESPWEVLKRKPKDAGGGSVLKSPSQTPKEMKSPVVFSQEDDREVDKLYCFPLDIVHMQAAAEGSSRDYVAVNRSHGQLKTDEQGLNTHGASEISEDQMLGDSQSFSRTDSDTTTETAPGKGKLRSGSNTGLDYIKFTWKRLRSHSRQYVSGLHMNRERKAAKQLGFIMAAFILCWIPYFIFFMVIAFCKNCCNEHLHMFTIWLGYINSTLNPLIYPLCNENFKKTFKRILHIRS
Chain of Delta-type opioid receptor (P41143 whole entry): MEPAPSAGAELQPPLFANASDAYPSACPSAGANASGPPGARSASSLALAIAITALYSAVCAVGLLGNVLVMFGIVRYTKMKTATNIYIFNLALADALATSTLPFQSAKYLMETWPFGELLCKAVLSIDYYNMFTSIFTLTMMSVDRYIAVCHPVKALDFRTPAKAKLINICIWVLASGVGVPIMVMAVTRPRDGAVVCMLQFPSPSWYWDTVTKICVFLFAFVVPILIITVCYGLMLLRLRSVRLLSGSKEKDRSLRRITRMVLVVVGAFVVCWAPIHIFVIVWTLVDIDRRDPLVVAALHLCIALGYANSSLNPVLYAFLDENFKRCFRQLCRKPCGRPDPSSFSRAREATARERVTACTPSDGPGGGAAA
Chain of 5-hydroxytryptamine receptor 1E (P28566 whole entry): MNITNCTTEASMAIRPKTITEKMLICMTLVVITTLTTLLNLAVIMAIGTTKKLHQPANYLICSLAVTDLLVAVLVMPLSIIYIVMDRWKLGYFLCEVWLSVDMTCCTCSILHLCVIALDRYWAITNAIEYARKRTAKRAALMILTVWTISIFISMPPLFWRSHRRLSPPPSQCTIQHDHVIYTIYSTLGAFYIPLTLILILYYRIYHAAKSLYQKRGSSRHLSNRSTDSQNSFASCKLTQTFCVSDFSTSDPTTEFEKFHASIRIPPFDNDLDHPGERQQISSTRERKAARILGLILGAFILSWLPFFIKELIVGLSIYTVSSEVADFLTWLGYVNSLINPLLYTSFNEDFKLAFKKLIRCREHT
Chain of Alpha-2A adrenergic receptor (P08913 whole entry): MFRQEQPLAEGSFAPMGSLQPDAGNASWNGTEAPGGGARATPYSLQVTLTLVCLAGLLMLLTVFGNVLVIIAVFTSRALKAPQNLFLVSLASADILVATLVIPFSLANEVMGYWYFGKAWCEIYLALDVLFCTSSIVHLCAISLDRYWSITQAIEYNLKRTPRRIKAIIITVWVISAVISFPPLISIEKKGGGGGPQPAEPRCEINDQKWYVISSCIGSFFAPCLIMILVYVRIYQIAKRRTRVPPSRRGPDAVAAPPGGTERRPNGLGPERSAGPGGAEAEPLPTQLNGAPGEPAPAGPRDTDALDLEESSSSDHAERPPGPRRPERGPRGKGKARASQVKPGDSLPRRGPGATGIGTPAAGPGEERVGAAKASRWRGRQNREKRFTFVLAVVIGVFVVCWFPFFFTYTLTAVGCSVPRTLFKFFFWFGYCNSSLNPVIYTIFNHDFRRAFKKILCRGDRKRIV

Q: How did the Ki [1] turn out when `COc1ccccc1N1CCN(CCN(C(=O)C2CCCCC2)c2ccccn2)CC1` was run?
A: The Ki was greater than 10 µM.

Q: What about the Ki [2] of the same compound?
A: Its Ki is greater than 10 µM.

Q: And the Ki [3]?
A: Its Ki is greater than 10 µM.

Q: And the Ki [4]?
A: Its Ki is 6.26 µM.

Q: And the Ki [5]?
A: Its Ki is greater than 10 µM.

Q: And the Ki [6]?
A: Its Ki is greater than 10 µM.

Q: What about the Ki [7] of the same compound?
A: Its Ki is 2.57 µM.

Q: And the Ki [8]?
A: The Ki was greater than 10 µM.

Q: What about the Ki [9] of the same compound?
A: Its Ki is greater than 10 µM.

Q: And the Ki [10]?
A: Its Ki is 0.37 µM.

Q: What about the Ki [11] of the same compound?
A: The Ki was greater than 10 µM.

Q: What about the Ki [12] of the same compound?
A: The Ki was 0.412 µM.

Q: What about the Ki [13] of the same compound?
A: The Ki was greater than 10 µM.

Q: What about the Ki [14] of the same compound?
A: Its Ki is greater than 10 µM.

Q: And the Ki [15]?
A: Its Ki is greater than 10 µM.

Q: And the Ki [16]?
A: The Ki was greater than 10 µM.

Q: What about the Ki [17] of the same compound?
A: Its Ki is greater than 10 µM.

Q: What about the Ki [18] of the same compound?
A: The Ki was 0.94 µM.

Q: What about the Ki [19] of the same compound?
A: The Ki was greater than 10 µM.

Q: What about the Ki [20] of the same compound?
A: Its Ki is greater than 10 µM.

Q: And the Ki [21]?
A: Its Ki is greater than 10 µM.

Q: And the Ki [22]?
A: The Ki was greater than 10 µM.

Q: And the Ki [23]?
A: Its Ki is greater than 10 µM.

Q: And the Ki [24]?
A: Its Ki is greater than 10 µM.

Source: BindingDB's records for doi:10.1007/s00213-006-0490-4 (Purdue University, 2006)
